Where only a bound is given, the exact number is not on record here.

For the first experiment, the target named is T1, human PAH with the R408W mutation (Homo sapiens, UniProt P00439, R408W).
T1 construct: expressed in transfected cells
T1 sequence (P00439 1-452 R408W): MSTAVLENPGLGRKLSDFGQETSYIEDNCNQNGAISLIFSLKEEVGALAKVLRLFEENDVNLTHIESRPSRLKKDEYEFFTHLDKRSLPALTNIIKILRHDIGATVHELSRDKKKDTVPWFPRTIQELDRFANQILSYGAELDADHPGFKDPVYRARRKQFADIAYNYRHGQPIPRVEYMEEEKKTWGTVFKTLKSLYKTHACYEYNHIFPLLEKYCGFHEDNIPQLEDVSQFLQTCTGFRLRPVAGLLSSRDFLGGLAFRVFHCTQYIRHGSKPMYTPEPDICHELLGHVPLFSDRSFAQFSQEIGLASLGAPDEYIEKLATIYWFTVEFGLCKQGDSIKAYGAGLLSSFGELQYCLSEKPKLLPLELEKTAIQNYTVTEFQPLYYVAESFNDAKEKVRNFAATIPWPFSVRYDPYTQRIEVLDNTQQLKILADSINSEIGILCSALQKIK
As to the kind of experiment: Cell Based Phenylalanine Flux Assay. On the set-up: scale not given here. As to conditions: A375 cells expressing human R408W PAH; 24 hrs compound incubation; 13C-Tyrosine by LC-MS; average where tested multiple times; read-out: AC50.
For `Cn1ncnc1C(=O)N1CCc2[nH]cnc2[C@@H]1c1nc2c(C(F)(F)F)cccc2s1` [Example 2102, (R)-(1-methyl-1H-1,2,4-triazol-5-yl)(4-(4-(trifluoromethyl)benzo[d]thiazol-2-yl)-6,7-dihydro-1H-imidazo[4,5-c]pyridin-5(4H)-yl)methanone], the concentration at half-maximal activity (AC50) (usually the concentration giving half of the maximal activity seen) was 1000 to 5000 nM.
In the case of `CCn1cnnc1C(=O)N1CCc2[nH]cnc2[C@@H]1c1nc2ccccc2s1` [Example 2077, (R)-(4-(benzo[d]thiazol-2-yl)-6,7-dihydro-1H-imidazo[4,5-c]pyridin-5(4H)-yl)(4-ethyl-4H-1,2,4-triazol-3-yl)methanone], the AC50 was more than 5000 nM.
Same read-out and setting: the same measure for `O=C(c1oc(-c2ccccn2)nc1Br)N1CCc2[nH]cnc2[C@H]1c1nc2ccccc2s1` [Example 1850]: less than 500 nM.
The same measure, in the same setting: the same measure for `O=C(c1oc(C2CC2)nc1C(F)F)N1CCc2[nH]cnc2[C@@H]1c1nc2c(F)cccc2s1` [Example 1572, (R)-(2-cyclopropyl-4-(difluoromethyl)oxazol-5-yl)(4-(4-fluorobenzo[d]thiazol-2-yl)-6,7-dihydro-1H-imidazo[4,5-c]pyridin-5(4H)-yl)methanone]: 500 to 1000 nM; for `O=C(c1ocnc1CF)N1CCc2[nH]cnc2[C@H]1c1nc2c(F)cccc2s1` [Example 2041, (S)-(4-(4-fluorobenzo[d]thiazol-2-yl)-6,7-dihydro-1H-imidazo[4,5-c]pyridin-5(4H)-yl)(4-(fluoromethyl)oxazol-5-yl)methanone]: less than 500 nM.
On the same count and under the same terms, for `Cc1nn(C)cc1-c1ncc(C(=O)N2CCc3[nH]cnc3[C@@H]2c2nc3ccccc3s2)s1` [Example 1380, (R)-(4-(benzo[d]thiazol-2-yl)-6,7-dihydro-1H-imidazo[4,5-c]pyridin-5(4H)-yl)(2-(1,3-dimethyl-1H-pyrazol-4-yl)thiazol-5-yl)methanone] the value was 1000 to 5000 nM; for `CN(C)CCc1nc(C(F)(F)F)c(C(=O)N2CCCc3[nH]cnc3[C@@H]2c2nc3ccccc3s2)o1` (single isomer, unassigned) [Example 2126], 1000 to 5000 nM; for `O=C(c1cnn2cc(-c3ccccn3)ccc12)N1CCc2[nH]cnc2[C@H]1c1nc2ccccc2s1` [Example 1211], 500 to 1000 nM.
Consider `CC(O)(c1nc(C(F)(F)F)c(C(=O)N2CCc3[nH]cnc3[C@H]2c2nc3ccccc3s2)o1)C1CC1` (single isomer, unassigned) [Example 1562], for which the concentration at half-maximal activity (AC50) is less than 500 nM.
The same measure, in the same setting: for `O=C(c1cnn2ccc(Br)cc12)N1CCc2[nH]cnc2[C@H]1c1nc2cc(F)ccc2s1` [Example 1281] the value was 500 to 1000 nM.
The same measure, in the same setting: for `Cc1cccc2nc([C@H]3c4nc[nH]c4CCN3C(=O)c3cncs3)sc12` [Example 1315, (R)-(4-(7-methylbenzo[d]thiazol-2-yl)-6,7-dihydro-1H-imidazo[4,5-c]pyridin-5(4H)-yl)(thiazol-5-yl)methanone] the value was 1000 to 5000 nM; for `COCCc1ccc2c(C(=O)N3CCc4[nH]cnc4[C@@H]3c3nc4ccccc4s3)cnn2c1` [Example 1452, (R)-(4-(benzo[d]thiazol-2-yl)-6,7-dihydro-1H-imidazo[4,5-c]pyridin-5(4H)-yl)(6-(2-methoxyethyl)pyrazolo[1,5-a]pyridin-3-yl)methanone], more than 5000 nM.
For `O=C(c1nccs1)N1CCc2[nH]cnc2[C@H]1c1nc2cccc(Br)c2s1` [Example 1200, (S)-(4-(7-bromobenzo[d]thiazol-2-yl)-6,7-dihydro-1H-imidazo[4,5-c]pyridin-5(4H)-yl)(thiazol-2-yl)methanone], the AC50 fell in the range of 500 to 1000 nM.
On the same count and under the same terms, the same measure for `c1ccc2[nH]c([C@@H]3c4nc[nH]c4CCN3Cc3nccs3)nc2c1` (single isomer, unassigned) [Example 927]: less than 500 nM; for `O=C(c1cnn(CC(F)F)c1Cl)N1CCc2[nH]cnc2[C@H]1c1nc2c(F)cccc2s1` [Example 2017, (S)-(5-chloro-1-(2,2-difluoroethyl)-1H-pyrazol-4-yl)(4-(4-fluorobenzo[d]thiazol-2-yl)-6,7-dihydro-1H-imidazo[4,5-c]pyridin-5(4H)-yl)methanone]: less than 500 nM; for `O=C(c1nnc(-c2ccn(C(F)F)n2)o1)N1CCc2[nH]cnc2[C@H]1c1nc2c(F)cccc2s1` [Example 1888, (S)-(5-(1-(difluoromethyl)-1H-pyrazol-3-yl)-1,3,4-oxadiazol-2-yl)(4-(4-fluorobenzo[d]thiazol-2-yl)-6,7-dihydro-1H-imidazo[4,5-c]pyridin-5(4H)-yl)methanone]: less than 500 nM.
Still for that read-out and setting: for `O=C(c1oc(CCC2CC2)nc1C(F)(F)F)N1CCc2[nH]cnc2[C@@H]1c1nc2c(F)cccc2s1` [Example 1626, (R)-(2-(2-cyclopropylethyl)-4-(trifluoromethyl)oxazol-5-yl)(4-(4-fluorobenzo[d]thiazol-2-yl)-6,7-dihydro-1H-imidazo[4,5-c]pyridin-5(4H)-yl)methanone] the value was less than 500 nM.
The same measure, in the same setting: for `CC(C)(O)c1nc(C2CC2)c(C(=O)N2CCc3[nH]cnc3[C@@H]2c2nc3c(F)cccc3s2)o1` [Example 1538, (R)-(4-cyclopropyl-2-(2-hydroxypropan-2-yl)oxazol-5-yl)(4-(4-fluorobenzo[d]thiazol-2-yl)-6,7-dihydro-1H-imidazo[4,5-c]pyridin-5(4H)-yl)methanone] the value was 1000 to 5000 nM; for `O=C(c1nnc(-c2ccc(F)cc2F)o1)N1CCc2[nH]cnc2[C@H]1c1nc2ccccc2s1` [Example 1811], less than 500 nM; for `O=C(Cc1ncc(C2CC2)s1)N1CCc2[nH]cnc2[C@@H]1c1nc2ccccc2s1` [Example 1460, (R)-1-(4-(benzo[d]thiazol-2-yl)-6,7-dihydro-1H-imidazo[4,5-c]pyridin-5(4H)-yl)-2-(5-cyclopropylthiazol-2-yl)ethanone], 1000 to 5000 nM.
For the molecule `O=C(c1cnc(N2CCCC2)s1)N1CCc2[nH]cnc2[C@@H]1c1nc2ccccc2s1` [Example 1324, (R)-(4-(benzo[d]thiazol-2-yl)-6,7-dihydro-1H-imidazo[4,5-c]pyridin-5(4H)-yl)(2-(pyrrolidin-1-yl)thiazol-5-yl)methanone], the AC50 is 1000 to 5000 nM.
Consider `O=C(c1ncn2ccccc12)N1CCc2[nH]cnc2[C@H]1c1nc2c(F)cccc2s1` [Example 1143, (S)-(4-(4-fluorobenzo[d]thiazol-2-yl)-6,7-dihydro-1H-imidazo[4,5-c]pyridin-5(4H)-yl)(imidazo[1,5-a]pyridin-1-yl)methanone], for which the AC50 lay within 500 to 1000 nM.
On the same count and under the same terms, for `Cn1nc(Br)nc1C(=O)N1CCc2[nH]cnc2[C@H]1c1nc2ccccc2s1` [Example 1977] the value was 1000 to 5000 nM; for `CC(C)(O)c1nc(C(F)F)c(C(=O)N2CCc3[nH]cnc3[C@@H]2c2nc3c(C(F)(F)F)cccc3s2)o1` [Example 2104, (R)-(4-(difluoromethyl)-2-(2-hydroxypropan-2-yl)oxazol-5-yl)(4-(4-(trifluoromethyl)benzo[d]thiazol-2-yl)-6,7-dihydro-1H-imidazo[4,5-c]pyridin-5(4H)-yl)methanone], 500 to 1000 nM.
In the case of `CC(C)(F)c1ncc(C(=O)N2CCc3[nH]cnc3[C@H]2c2nc3ccccc3s2)o1` [Example 1455], the AC50 is less than 500 nM.
Same read-out and setting: for `Cc1nc(CN(C)C)oc1C(=O)N1CCc2[nH]cnc2[C@@H]1c1nc2ccccc2s1` [Example 1694, (R)-(4-(benzo[d]thiazol-2-yl)-6,7-dihydro-1H-imidazo[4,5-c]pyridin-5(4H)-yl)(2-((dimethylamino)methyl)-4-methyloxazol-5-yl)methanone] the value was more than 5000 nM.

Staying with this experiment, now noted: A375 cells expressing human R408W PAH; 24 hrs with compound; 13C-Tyrosine by LC-MS; average where tested multiple times.
Regarding `CC(C)(O)c1nc(C(F)F)c(C(=O)N2CCc3[nH]cnc3C2c2nc3ccccc3[nH]2)o1` (centres unmarked), the AC50 result was “E, E”.

Still in this experiment, the particulars now being: A375 cells expressing human R408W PAH; 24 hrs with compound; 13C-Tyrosine by LC-MS; average where tested multiple times; read-out: AC50.
Turning to `O=C(c1ccn[nH]1)N1CCc2[nH]cnc2C1c1nc2c(F)cccc2s1` (centres unmarked), the half-maximal activity concentration (AC50) was more than 5000 nM.
Still for that read-out and setting: for `CC(C)(O)c1cc(C(=O)N2CCc3[nH]cnc3C2c2nc3c(F)cccc3s2)no1` (centres unmarked) the value was 1000 to 5000 nM.
As for `O=C(Cn1cncn1)N1CCc2[nH]cnc2[C@H]1c1nc2ccccc2[nH]1` [(S)-1-(4-(1H-benzo[d]imidazol-2-yl)-6,7-dihydro-1H-imidazo[4,5-c]pyridin-5(4H)-yl)-2-(1H-1,2,4-triazol-1-yl)ethanone], the AC50 is more than 5000 nM.
Still for that read-out and setting: the same measure for `CC(C)(O)Cn1ncc(C(=O)N2CCc3[nH]cnc3C2c2nc3c(F)cccc3s2)c1Cl` (centres unmarked): more than 5000 nM; for `CC1(C)CN(C(=O)c2cnco2)C(c2nc3c(F)cccc3s2)c2nc[nH]c21` (centres unmarked): more than 5000 nM; for `Cc1ccc2c(C(=O)N3CCc4[nH]cnc4C3c3nc4ccc(F)cc4s3)cnn2c1` (centres unmarked): more than 5000 nM.
As to `CC1CN(C(=O)c2cnco2)C(c2nc3c(F)cccc3s2)c2nc[nH]c21` (centres unmarked), the AC50 is more than 5000 nM.
As for `O=C(CCc1nccs1)N1CCc2[nH]cnc2C1c1nc2c(Br)cccc2s1` (centres unmarked), the AC50 fell in the range of 1000 to 5000 nM.
On the same count and under the same terms, the same measure for `O=C(C1CC1)N1CCc2[nH]cnc2C1c1nc2ccc(Br)cc2s1` (centres unmarked): more than 5000 nM; for `Cc1cc(C(=O)N2CCc3[nH]cnc3C2c2nc3c(F)cccc3s2)n(-c2ccc(F)cc2)n1` (centres unmarked): more than 5000 nM; for `O=C(c1nnc(C2CC(F)(F)C2)o1)N1CCc2[nH]cnc2C1c1nc2ccccc2s1` (centres unmarked): 1000 to 5000 nM.
As for `Cc1ncsc1C(=O)N1CCc2[nH]cnc2C1c1nc2ccccc2s1` (centres unmarked), the concentration at half-maximal activity (AC50) was more than 5000 nM.
On the same count and under the same terms, the same measure for `Cc1c(C(=O)N2CCc3[nH]cnc3[C@H]2c2nc3c(F)cccc3s2)cnn1C` (single isomer, unassigned): 1000 to 5000 nM.
As to `O=C(C1CC1)N1CCc2[nH]cnc2C1c1nc2cc(F)ccc2s1` (centres unmarked), the half-maximal activity concentration (AC50) was 1000 to 5000 nM.
